# Earlier results in patent EP2743282B1, “Melamine-aldehyde-condensation product and method obtaining the same” (Borealis Agrolinz Melamine GmbH, priority 2012, dated 2014).
# Details: in water at 20 °C
row,water solubility,SMILES
1,49000 µg/mL,"CNc1nc(NC)nc(N(C)C)n1 [N,N,N',N""-tetramethylmelamine, reference compound]"
2,400 µg/mL,"CN(C)c1nc(N)nc(N(C)C)n1 [N,N,N',N'-tetramethylmelamine]"
3,1200 µg/mL,"CN(C)c1nc(N)nc(N)n1 [N,N-dimethylmelamine]"
